{
  "source": "patent US20260137820A1",
  "about": "“TRIFUNCTIONAL COMPOUND AND USE THEREOF” (PEKING UNIVERSITY, priority 2022, published 2026)",
  "key": {"AR42J cells": {"test_system": "AR42J cells", "assay": "Cell affinity determination, similar method", "type": "cell-based", "description": "(§1) HT-1080-FAP cells were inoculated into a 24-well plate 24 hours in advance, with the density being about 30% (calculated and estimated), 10^5 cells (countable) per well. 0.5 mL of a complete medium was added. The medium was changed to a serum-free medium. 12 groups of FAPI-CB-01 solutions with a concentration gradient of 0-5000 nM were set up, with internal replicates n=4 for each group. […] 0.75 nM ^68Ga-FAPI-04 was added to each well, followed by incubation at 37° C. for 1 hour. After washing twice with cold PBS and lysis, the radioactivity count was measured.\n(§2) Using a similar method, the corresponding targeting PSMA-CB-05, FOLR1-CB-06, SSTR2-CB-02, Nectin4-CB-02, and CXCR4-CB-03 were determined for affinity in LNCaP cells, KB cells, AR42J cells, SW-780 cells, or Daudi cells, respectively. All of these compounds maintained good affinity."}, "LNCaP cells": {"test_system": "LNCaP cells", "assay": "Cell affinity determination, similar method", "type": "cell-based", "description": "as §1, §2"}, "Human FAP Protein": {"target": "T1, Human FAP Protein (Homo sapiens, UniProt Q12884)", "T1 construct": "His; purchased Novoprotein (China)", "T1 sequence (Q12884 1-760)": "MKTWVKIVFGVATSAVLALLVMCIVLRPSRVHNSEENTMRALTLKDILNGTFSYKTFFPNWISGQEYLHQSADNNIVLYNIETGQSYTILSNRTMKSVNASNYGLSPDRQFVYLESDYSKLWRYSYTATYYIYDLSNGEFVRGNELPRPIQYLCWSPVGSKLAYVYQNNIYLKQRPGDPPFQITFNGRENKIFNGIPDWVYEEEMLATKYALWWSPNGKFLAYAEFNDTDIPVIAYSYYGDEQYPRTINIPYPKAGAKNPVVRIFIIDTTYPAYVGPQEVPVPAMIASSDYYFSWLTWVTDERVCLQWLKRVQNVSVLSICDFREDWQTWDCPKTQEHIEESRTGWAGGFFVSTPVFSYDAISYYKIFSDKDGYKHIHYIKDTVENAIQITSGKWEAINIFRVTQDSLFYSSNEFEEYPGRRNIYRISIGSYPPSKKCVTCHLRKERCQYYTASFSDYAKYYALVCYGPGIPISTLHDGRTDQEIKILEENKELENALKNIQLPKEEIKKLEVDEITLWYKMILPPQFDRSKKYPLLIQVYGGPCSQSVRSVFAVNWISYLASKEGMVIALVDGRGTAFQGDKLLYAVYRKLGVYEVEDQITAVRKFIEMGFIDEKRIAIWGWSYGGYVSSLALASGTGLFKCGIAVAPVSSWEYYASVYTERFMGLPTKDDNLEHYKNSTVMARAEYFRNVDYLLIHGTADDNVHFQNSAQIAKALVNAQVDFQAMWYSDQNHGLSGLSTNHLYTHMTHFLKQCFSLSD", "assay": "Surface plasmon resonance, multi-cycle mode", "type": "binding", "settings": "SPR multi-cycle, 1:1 binding model", "description": "According to US Pharmacopeia USP43 IMMUNOLOGICAL TEST METHODS-SURFACE PLASMON RESONANCE<1105> and Chinese Pharmacopoeia 2020, Volume IV, Surface plasmon resonance method, Label-free Immunochemistry (IV), 3429 Immunochemistry, General Rule, a surface plasmon resonance experiment was carried out.\nA surface plasma chromatograph from Cytiva was used for measurement. Before protein injection, 400 mM condensing agent 1-ethyl-(3-dimethylaminopropyl)carbodiimide hydrochloride and 100 mM N-hydroxysuccinimide were mixed, and a CM5 sensor chip was activated with this mixture for 420 seconds at a flow rate of 10 μL/min. 50 μg/mL protein was then injected into an Fc2 sample channel at a flow rate of 10 μL/min to achieve a protein immobilization level of about 8000-15000 RU. In the control group, no protein was injected. Subsequently, the unreacted chip was blocked with 1M ethanolamine hydrochloride-NaOH at a flow rate of 10 μL/min for 420 seconds.\nDifferent gradient solutions were injected into channels Fc1-Fc2 at a flow rate of 30 μL/min, followed by a 60-second binding phase and a 90-second dissociation phase, and data were collected."}},
  "data": [
    {"smiles": "C[C@@H](O)[C@H](NC(=O)[C@@H]1CSSC[C@H](NC(=O)[C@@H](Cc2ccccc2)NC(=O)CN2CCN(CC(=O)O)CCN(CC(=O)O)CCN(CC(=O)O)CC2)C(=O)N[C@@H](Cc2ccc(OS(=O)(=O)F)cc2)C(=O)N[C@H](Cc2c[nH]c3ccccc23)C(=O)N[C@@H](CCCCN)C(=O)N[C@@H]([C@@H](C)O)C(=O)N1)C(=O)O", "note": "[SSTR2-CB-02]", "values": [
      {"measurement": "affinity", "setting": "AR42J cells", "result": "good affinity"}
    ]},
    {"smiles": "O=C(O)CC[C@H](NC(=O)N[C@@H](CCCCNC(=O)[C@H](Cc1ccc2ccccc2c1)NC(=O)[C@H]1CC[C@H](CNC(=O)[C@H](CCCCNC(=O)CCc2cccc(S(=O)(=O)F)c2)NC(=O)CN2CCN(CC(=O)O)CCN(CC(=O)O)CCN(CC(=O)O)CC2)CC1)C(=O)O)C(=O)O", "note": "[PSMA-CB-05]", "values": [
      {"measurement": "affinity", "setting": "LNCaP cells", "result": "good affinity"}
    ]},
    {"smiles": "N#C[C@@H]1CC(F)(F)CN1C(=O)CNC(=O)c1ccnc2ccc(OCCCN3CCN(C(=O)CN4CCN(CC(=O)O)CCN(CC(=O)O)CCN(CC(=O)O)CC4)CC3)cc12", "note": "[FAPI-04, reference compound]", "values": [
      {"measurement": "Rmax (maximum theoretical analyte binding capacity)", "setting": "Human FAP Protein", "result": 21.7, "unit": "RU"},
      {"measurement": "ka", "setting": "Human FAP Protein", "result": 845000, "unit": "M⁻¹ s⁻¹"},
      {"measurement": "kd", "setting": "Human FAP Protein", "result": 0.000311, "unit": "s⁻¹"}
    ]}
  ]
}
